Columns and labels:
[1] = system: homozygous progeny of the three mutant sources; format: in vivo, sunflower; details: Test B application rates, post-emergence
Procedure: (§1) A greenhouse experiment was conducted to evaluate the spectrum of tolerance of three homozygous resistant mutants to various herbicides inhibiting acetolactate synthase (ALS) as their mode of action. The inbred lines tested were the 5th generation self-pollinated maintainers, M5M7, M5M11 and M5M12, as well as the 4th generation male sterile back-crosses BC4-M5M7, BC4-M5M11 and BC4-M5M12. Treatments of formulated herbicides were applied post-emergence at the 4-leaf stage. Application rates of the test herbicides were chosen to coincide with the rates commonly used in the crops for which they are registered. The application rate of imazethapyr was chosen to match the rate recommended to control parasitic weeds in sunflowers by L. García-Torres et al., Weed Technology 1995, 9, 819-824. Wild type H89 inbred sunflower was not included in this test, because the many of the tested herbicides are known to be efficacious in controlling volunteer sunflower as a weed. Treatments were replicated twice. […] A rating of 0% phytotoxicity means no crop injury.

M5M12 = assay: Test B greenhouse phytotoxicity, M5M12; format: in vivo, sunflower; details: M5M12; 15 g a.i./ha post-emergence 4-leaf stage
Procedure: as §1

BC4-M5M12 = assay: Test B greenhouse phytotoxicity, BC4-M5M12; format: in vivo, sunflower; details: BC4-M5M12; 15 g a.i./ha post-emergence 4-leaf stage
Procedure: as §1

BC4-M5M11 = assay: Test B greenhouse phytotoxicity, BC4-M5M11; format: in vivo, sunflower; details: BC4-M5M11; 15 g a.i./ha post-emergence 4-leaf stage
Procedure: as §1

Mercurialis annua = assay: Test H weed control, field plots; format: in vivo; details: 36 days after treatment; g a.i./ha: tribenuron-methyl 22.5, metsulfuron-methyl 6, ethametsulfuron-methyl 16, imazapyr isopropylamine salt 15, aclonifen 1200
From the text: (§2) Field plots (2 m×5 m) were tilled to remove weed cover and then seeded in rows with the following weeds: Capsella bursa pastoris, Atriplex patula, Chenopodium album, Stellaria media, Mecurialis annua, Polygonum persicaria, Amaranthus retroflexus, Polygonum convolvulus, Polygonum aviculare, Viola arvensis, Matricaria inodora, Anagallis arvensis, Sinapis arvensis, Setaria viridis, Solanum nigrum and Echinochloa crusgalli. After 21 days from sowing, at which time the weeds had reached the 2- to 6-leaf stage, herbicide treatments were applied to the plots according to a complete randomized block design, with each herbicide treatment triply replicated. The herbicides were sprayed using standard flat fan nozzles moved perpendicular to the sown lines using water spray volumes of about 296 L/ha.
(§3) Assessments of weed control were made by visual inspection 36 days after herbicide treatment. A visual rating system was used based on a percentage scale from 0 to 100% compared to an adjacent untreated control plot. On this scale 0 represents no visual differences relative to an untreated control and 100 represents complete control of the given weed species.

Echinochloa crus-galli = assay: Test H weed control, field plots; format: in vivo; details: 36 days after treatment; g a.i./ha: tribenuron-methyl 22.5, metsulfuron-methyl 6, ethametsulfuron-methyl 16, imazapyr isopropylamine salt 15, aclonifen 1200
From the text: as §2, §3

Polygonum aviculare = assay: Test H weed control, field plots; format: in vivo; details: 36 days after treatment; g a.i./ha: tribenuron-methyl 22.5, metsulfuron-methyl 6, ethametsulfuron-methyl 16, imazapyr isopropylamine salt 15, aclonifen 1200
From the text: as §2, §3

Sinapis arvensis = assay: Test H weed control, field plots; format: in vivo; details: 36 days after treatment; g a.i./ha: tribenuron-methyl 22.5, metsulfuron-methyl 6, ethametsulfuron-methyl 16, imazapyr isopropylamine salt 15, aclonifen 1200
From the text: as §2, §3

Setaria viridis = assay: Test H weed control, field plots; format: in vivo; details: 36 days after treatment; g a.i./ha: tribenuron-methyl 22.5, metsulfuron-methyl 6, ethametsulfuron-methyl 16, imazapyr isopropylamine salt 15, aclonifen 1200
From the text: as §2, §3

Amaranthus retroflexus = assay: Test H weed control, field plots; format: in vivo; details: 36 days after treatment; g a.i./ha: tribenuron-methyl 22.5, metsulfuron-methyl 6, ethametsulfuron-methyl 16, imazapyr isopropylamine salt 15, aclonifen 1200
From the text: as §2, §3

Viola arvensis = assay: Test H weed control, field plots; format: in vivo; details: 36 days after treatment; g a.i./ha: tribenuron-methyl 22.5, metsulfuron-methyl 6, ethametsulfuron-methyl 16, imazapyr isopropylamine salt 15, aclonifen 1200
From the text: as §2, §3

Polygonum convolvulus = assay: Test H weed control, field plots; format: in vivo; details: 36 days after treatment; g a.i./ha: tribenuron-methyl 22.5, metsulfuron-methyl 6, ethametsulfuron-methyl 16, imazapyr isopropylamine salt 15, aclonifen 1200
From the text: as §2, §3

Polygonum persicaria = assay: Test H weed control, field plots; format: in vivo; details: 36 days after treatment; g a.i./ha: tribenuron-methyl 22.5, metsulfuron-methyl 6, ethametsulfuron-methyl 16, imazapyr isopropylamine salt 15, aclonifen 1200
From the text: as §2, §3

Matricaria inodora = assay: Test H weed control, field plots; format: in vivo; details: 36 days after treatment; g a.i./ha: tribenuron-methyl 22.5, metsulfuron-methyl 6, ethametsulfuron-methyl 16, imazapyr isopropylamine salt 15, aclonifen 1200
From the text: as §2, §3

Atriplex patula = assay: Test H weed control, field plots; format: in vivo; details: 36 days after treatment; g a.i./ha: tribenuron-methyl 22.5, metsulfuron-methyl 6, ethametsulfuron-methyl 16, imazapyr isopropylamine salt 15, aclonifen 1200
From the text: as §2, §3

Capsella bursa pastoris = assay: Test H weed control, field plots; format: in vivo; details: 36 days after treatment; g a.i./ha: tribenuron-methyl 22.5, metsulfuron-methyl 6, ethametsulfuron-methyl 16, imazapyr isopropylamine salt 15, aclonifen 1200
From the text: as §2, §3

Anagallis arvensis = assay: Test H weed control, field plots; format: in vivo; details: 36 days after treatment; g a.i./ha: tribenuron-methyl 22.5, metsulfuron-methyl 6, ethametsulfuron-methyl 16, imazapyr isopropylamine salt 15, aclonifen 1200
From the text: as §2, §3

Solanum nigrum = assay: Test H weed control, field plots; format: in vivo; details: 36 days after treatment; g a.i./ha: tribenuron-methyl 22.5, metsulfuron-methyl 6, ethametsulfuron-methyl 16, imazapyr isopropylamine salt 15, aclonifen 1200
From the text: as §2, §3

M5M11 = assay: Test B greenhouse phytotoxicity, M5M11; format: in vivo, sunflower; details: M5M11; 15 g a.i./ha post-emergence 4-leaf stage
Procedure: as §1

M5M7 = assay: Test B greenhouse phytotoxicity, M5M7; format: in vivo, sunflower; details: M5M7; 15 g a.i./ha post-emergence 4-leaf stage
Procedure: as §1

BC4-M5M7 = assay: Test B greenhouse phytotoxicity, BC4-M5M7; format: in vivo, sunflower; details: BC4-M5M7; 15 g a.i./ha post-emergence 4-leaf stage
Procedure: as §1

Chenopodium album = assay: Test H weed control, field plots; format: in vivo; details: 36 days after treatment; g a.i./ha: tribenuron-methyl 22.5, metsulfuron-methyl 6, ethametsulfuron-methyl 16, imazapyr isopropylamine salt 15, aclonifen 1200
From the text: as §2, §3

Stellaria media = assay: Test H weed control, field plots; format: in vivo; details: 36 days after treatment; g a.i./ha: tribenuron-methyl 22.5, metsulfuron-methyl 6, ethametsulfuron-methyl 16, imazapyr isopropylamine salt 15, aclonifen 1200
From the text: as §2, §3

'HA89B' seed = assay: Determination of optimum mutagen concentration; format: in vivo, sunflower; details: EMS 20 to 40 mM
Procedure: Batches each consisting of 6000 seeds of ‘HA89B’ were incubated in 0.1 M potassium phosphate buffer (pH 5.6), supplemented with concentrations of EMS between 0 and 80 mM for 18 hours at room temperature, causing the seeds to swell. The seeds were rinsed in sodium thiosulfate for 1 minute to decompose the EMS, then in 5 consecutive water washes to eliminate EMS traces. The overall rinsing procedure lasted 5 hours. Seeds were dried for 2 hours at 25° C. using an airflow drier and then divided into sub-batches of 200 seeds each. To determine the effect of EMS on germination and plant branching, sub-batches were sown in flats right after drying and following 2, 4 and 6 days of storage at 4° C. after drying. Plant branching was used as a visual measure of mutation frequencies. Sub-batches from each EMS concentration were also sown in pots right after drying and grown to maturity to determine effect of EMS treatments on seed setting.

CCOc1nc(NC)nc(NC(=O)NS(=O)(=O)c2ccccc2C(=O)OC)n1 [Ethametsulfuron-methyl, ethametsulfuron-methyl]
tolerance of the mutants [1]: extremely resistant
Maximum Phytotoxicity (M5M12): 0%
Maximum Phytotoxicity (BC4-M5M12): 0%
Maximum Phytotoxicity (BC4-M5M11): 10%
weed control, visual rating: Mercurialis annua (Mercurialis annua): 0%
weed control, visual rating: Echinochloa crus-galli (Echinochloa crus-galli): 33%
weed control, visual rating: Polygonum aviculare (Polygonum aviculare): 0%
weed control, visual rating: Sinapis arvensis (Sinapis arvensis): 97%
weed control, visual rating: Setaria viridis (Setaria viridis): 0%
weed control, visual rating: Amaranthus retroflexus (Amaranthus retroflexus): 82%
weed control, visual rating: Viola arvensis (Viola arvensis): 0%
weed control, visual rating: Polygonum convolvulus (Polygonum convolvulus): 0%
weed control, visual rating: Polygonum persicaria (Polygonum persicaria): 0%
weed control, visual rating: Matricaria inodora (Matricaria inodora): 67%
weed control, visual rating: Atriplex patula (Atriplex patula): 0%
weed control, visual rating: Capsella bursa pastoris (Capsella bursa pastoris): 100%
weed control, visual rating: Anagallis arvensis (Anagallis arvensis): 100%
weed control, visual rating: Solanum nigrum (Solanum nigrum): 70%
Maximum Phytotoxicity (M5M11): 0%
Maximum Phytotoxicity (M5M7): 10%
Maximum Phytotoxicity (BC4-M5M7): 5%
weed control, visual rating: Chenopodium album (Chenopodium album): 0%
weed control, visual rating: Stellaria media (Stellaria media): 79%

CCOS(C)(=O)=O [EMS, ethyl methanesulfonate]
plants producing viable seed ('HA89B' seed): more than half of the plants produced viable seed
plant branching (visual measure of mutation frequencies) ('HA89B' seed; about 12% of plants from untreated seeds branched): more than half of the plants were branched

— US6822146B2, “Sulfonylurea-tolerant sunflower line M7” (priority 2000, dated 2004)
